Experimental data as given in PubChem BioAssay AID1745844 (Carcinogenic Potency Database (CPDB), 2022).
Several values for one entry are separate records, joined by “and”; a condition that tells them apart may be missing. Identical values can stand only once. Activity calls are given as the source filed them. How the calls were made is not given here.

System: rodent lifetime carcinogenesis bioassay, tumor incidence TD50
Experiment: carcinogenic potency in animals, long-term in vivo studies, CPDB compilation (AID 1745844)

## O=c1cc(CO)occ1O
mouse, strain B6C3F1, females, in feed, site: liver, lesion: hepatocellular adenoma, dosed 84 weeks, study length 88 weeks
  TD50: 20900 mg/kg/day
mouse, strain B6C3F1, females, in feed, site: thyroid gland, lesion: follicular-cell adenoma, dosed 84 weeks, study length 88 weeks
  TD50: 2610 mg/kg/day
mouse, strain B6C3F1, males, in feed, site: liver, lesion: hepatocellular adenoma, dosed 84 weeks, study length 88 weeks
  TD50: 19700 mg/kg/day
mouse, strain B6C3F1, males, in feed, site: thyroid gland, lesion: follicular-cell adenoma, dosed 52 weeks, study length 52 weeks
  TD50: 323 mg/kg/day
mouse, strain B6C3F1, males, in feed, site: thyroid gland, lesion: follicular-cell adenoma, dosed 84 weeks, study length 88 weeks
  TD50: 927 mg/kg/day

## Cc1ccc(N)c(C)c1
mouse, strain CD-1 HaM/ICR, females, in feed, site: any site (literature study), lesion: several types, types named in the paper, dosed 77 weeks, study length 90 weeks
  TD50: 12.2 mg/kg/day
mouse, strain CD-1 HaM/ICR, females, in feed, site: liver, lesion: several types, types named in the paper, dosed 77 weeks, study length 90 weeks
  carcinogen call: negative (inactive)
mouse, strain CD-1 HaM/ICR, females, in feed, site: lung, lesion: several types, types named in the paper, dosed 77 weeks, study length 90 weeks
  TD50: 12.4 mg/kg/day and 13.5 mg/kg/day
mouse, strain CD-1 HaM/ICR, males, in feed, site: any site (literature study), lesion: several types, types named in the paper, dosed 77 weeks, study length 90 weeks
  TD50: 646 mg/kg/day (inactive)
mouse, strain CD-1 HaM/ICR, males, in feed, site: liver, lesion: several types, types named in the paper, dosed 77 weeks, study length 90 weeks
  TD50: 65.4 mg/kg/day (inactive)
mouse, strain CD-1 HaM/ICR, males, in feed, site: lung, lesion: several types, types named in the paper, dosed 77 weeks, study length 90 weeks
  carcinogen call: negative (inactive)
rat, strain Charles River CD (Sprague-Dawley), males, in feed, site: any site (literature study), lesion: several types, types named in the paper, dosed 77 weeks, study length 98 weeks
  TD50: 16.8 mg/kg/day (inactive)
rat, strain Charles River CD (Sprague-Dawley), males, in feed, site: liver, lesion: several types, types named in the paper, dosed 77 weeks, study length 98 weeks
  TD50: 260 mg/kg/day (inactive)

## Nc1ccc(Cl)cc1
mouse, strain B6C3F1, females, by gavage, site: any site (literature study), lesion: several types, types named in the paper, dosed 103 weeks, study length 105 weeks
  carcinogen call: negative (inactive)
mouse, strain B6C3F1, females, by gavage, site: liver, lesion: hepatocellular adenoma + hepatocellular carcinoma + neoplastic nodule, dosed 103 weeks, study length 105 weeks
  TD50: 176 mg/kg/day
mouse, strain B6C3F1, males, by gavage, site: all sites + liver, lesion: hemangiosarcoma + hepatocellular adenoma + hepatocellular carcinoma, dosed 103 weeks, study length 105 weeks
  TD50: 56 mg/kg/day
mouse, strain B6C3F1, males, by gavage, site: all sites, lesion: hemangiosarcoma, dosed 103 weeks, study length 105 weeks
  TD50: 89.5 mg/kg/day
mouse, strain B6C3F1, males, by gavage, site: any site (literature study), lesion: several types, types named in the paper, dosed 103 weeks, study length 105 weeks
  TD50: 83.7 mg/kg/day
mouse, strain B6C3F1, males, by gavage, site: liver, lesion: hepatocellular adenoma + hepatocellular carcinoma + neoplastic nodule, dosed 103 weeks, study length 105 weeks
  TD50: 49.3 mg/kg/day
mouse, strain B6C3F1, males, by gavage, site: liver, lesion: hepatocellular adenoma + hepatocellular carcinoma, dosed 103 weeks, study length 105 weeks
  TD50: 49.3 mg/kg/day
mouse, strain B6C3F1, males, by gavage, site: liver, lesion: hepatocellular carcinoma, dosed 103 weeks, study length 105 weeks
  TD50: 33.8 mg/kg/day
mouse, strain B6C3F1, males, by gavage, site: lung, lesion: alveolar/bronchiolar adenoma + alveolar/bronchiolar carcinoma, dosed 103 weeks, study length 105 weeks
  TD50: 2780 mg/kg/day
rat, strain Fischer 344, females, by gavage, site: adrenal medulla, lesion: pheochromocytoma, benign, dosed 103 weeks, study length 105 weeks
  TD50: 105 mg/kg/day
rat, strain Fischer 344, females, by gavage, site: any site (literature study), lesion: several types, types named in the paper, dosed 103 weeks, study length 105 weeks
  TD50: 145 mg/kg/day
rat, strain Fischer 344, females, by gavage, site: spleen, lesion: fibrosarcoma + osteosarcoma, dosed 103 weeks, study length 105 weeks
  TD50: 232 mg/kg/day
rat, strain Fischer 344, males, by gavage, site: adrenal medulla, lesion: pheochromocytoma benign, bilateral + pheochromocytoma, benign, dosed 103 weeks, study length 105 weeks
  TD50: 14.8 mg/kg/day
rat, strain Fischer 344, males, by gavage, site: adrenal medulla, lesion: pheochromocytoma benign, bilateral + pheochromocytoma, malignant + pheochromocytoma, benign, dosed 103 weeks, study length 105 weeks
  TD50: 13.3 mg/kg/day
rat, strain Fischer 344, males, by gavage, site: any site (literature study), lesion: several types, types named in the paper, dosed 103 weeks, study length 105 weeks
  TD50: 20.8 mg/kg/day
rat, strain Fischer 344, males, by gavage, site: spleen, lesion: fibrosarcoma + fibroma, dosed 103 weeks, study length 105 weeks
  TD50: 16.9 mg/kg/day
rat, strain Fischer 344, males, by gavage, site: spleen, lesion: fibrosarcoma + hemangiosarcoma + osteosarcoma, dosed 103 weeks, study length 105 weeks
  TD50: 7.62 mg/kg/day
rat, strain Fischer 344, males, by gavage, site: spleen, lesion: fibrosarcoma + osteosarcoma, dosed 103 weeks, study length 105 weeks
  TD50: 7.9 mg/kg/day
rat, strain Fischer 344, males, by gavage, site: spleen, lesion: fibrosarcoma, dosed 103 weeks, study length 105 weeks
  TD50: 19 mg/kg/day
rat, strain Fischer 344, males, by gavage, site: spleen, lesion: hemangiosarcoma, dosed 103 weeks, study length 105 weeks
  TD50: 107 mg/kg/day
rat, strain Fischer 344, males, by gavage, site: spleen, lesion: osteosarcoma, dosed 103 weeks, study length 105 weeks
  TD50: 15.5 mg/kg/day

## O=NN1CCCC[C@H]1c1cccnc1
rat, strain Chester Beatty albino, females, in drinking water, site: esophagus, lesion: benign tumor, dosed 73 weeks, study length 73 weeks
  TD50: 17.7 mg/kg/day
rat, strain Chester Beatty albino, females, in drinking water, site: esophagus, lesion: several types, types named in the paper, dosed 73 weeks, study length 73 weeks
  TD50: 12.9 mg/kg/day
rat, strain Chester Beatty albino, females, in drinking water, site: esophagus, lesion: squamous-cell carcinoma, dosed 73 weeks, study length 73 weeks
  TD50: 413 mg/kg/day
rat, strain Chester Beatty albino, males, in drinking water, site: esophagus, lesion: benign tumor, dosed 73 weeks, study length 73 weeks
  TD50: 28.1 mg/kg/day
rat, strain Chester Beatty albino, males, in drinking water, site: esophagus, lesion: several types, types named in the paper, dosed 73 weeks, study length 73 weeks
  TD50: 11 mg/kg/day
rat, strain Chester Beatty albino, males, in drinking water, site: esophagus, lesion: squamous-cell carcinoma, dosed 73 weeks, study length 73 weeks
  TD50: 86 mg/kg/day
